Test results published in ChEMBL document CHEMBL5465560, “Selectivity Literature for EUbOPEN Chemogenomic Library” (2024).
Blank lines part the entries; values can stand above or below the compound they belong to.

Columns and labels:
[1] = target: T1, Serine/threonine-protein kinase Sgk1 (Homo sapiens) (UniProt O00141); experiment: Selectivity interaction (Kinase panel (Z-LYTE Assay)) EUB0001632a SGK1; conditions: at 10 µM
T1 sequence (whole entry): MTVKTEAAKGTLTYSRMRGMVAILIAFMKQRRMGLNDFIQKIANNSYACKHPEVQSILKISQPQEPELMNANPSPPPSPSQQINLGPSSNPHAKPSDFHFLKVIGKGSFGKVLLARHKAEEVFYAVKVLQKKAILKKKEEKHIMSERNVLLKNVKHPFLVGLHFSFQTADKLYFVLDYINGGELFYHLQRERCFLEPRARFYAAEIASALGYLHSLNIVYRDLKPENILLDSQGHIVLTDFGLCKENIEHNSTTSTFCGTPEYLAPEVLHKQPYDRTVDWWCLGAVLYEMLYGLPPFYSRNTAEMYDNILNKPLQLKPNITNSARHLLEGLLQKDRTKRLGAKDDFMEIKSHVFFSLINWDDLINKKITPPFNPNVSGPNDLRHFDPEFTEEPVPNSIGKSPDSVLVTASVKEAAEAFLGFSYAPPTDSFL

[2] = target: Calcium/calmodulin-dependent protein kinase type II subunit delta (Homo sapiens) (UniProt Q13557); conditions: at 10 µM
[3] = target: Bone morphogenetic protein receptor type-1A (Homo sapiens, UniProt P36894); conditions: at 10 µM
[4] = target: T2, MAP/microtubule affinity-regulating kinase 4 (Homo sapiens) (UniProt Q96L34); experiment: Selectivity interaction (ProQinase) EUB0000171b MARK4
T2 sequence (whole entry): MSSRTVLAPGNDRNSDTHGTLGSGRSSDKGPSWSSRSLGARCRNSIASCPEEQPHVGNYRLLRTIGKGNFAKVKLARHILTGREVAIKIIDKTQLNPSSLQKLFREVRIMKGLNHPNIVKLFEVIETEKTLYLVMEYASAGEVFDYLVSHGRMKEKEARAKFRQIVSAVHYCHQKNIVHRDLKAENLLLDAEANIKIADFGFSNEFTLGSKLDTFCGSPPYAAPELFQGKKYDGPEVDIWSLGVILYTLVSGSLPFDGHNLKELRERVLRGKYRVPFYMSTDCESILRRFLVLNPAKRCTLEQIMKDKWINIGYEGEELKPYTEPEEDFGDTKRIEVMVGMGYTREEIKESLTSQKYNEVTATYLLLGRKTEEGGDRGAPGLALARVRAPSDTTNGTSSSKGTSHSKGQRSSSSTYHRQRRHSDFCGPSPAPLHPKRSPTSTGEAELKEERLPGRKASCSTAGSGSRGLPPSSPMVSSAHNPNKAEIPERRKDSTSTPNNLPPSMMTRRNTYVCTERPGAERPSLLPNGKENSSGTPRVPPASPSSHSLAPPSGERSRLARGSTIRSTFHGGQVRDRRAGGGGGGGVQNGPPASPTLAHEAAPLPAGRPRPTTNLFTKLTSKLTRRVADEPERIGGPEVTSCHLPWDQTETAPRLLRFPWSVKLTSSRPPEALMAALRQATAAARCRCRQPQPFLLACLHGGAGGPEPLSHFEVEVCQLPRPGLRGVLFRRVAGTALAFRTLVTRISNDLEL

[5] = target: Tyrosine-protein kinase Srms (Homo sapiens) (UniProt Q9H3Y6); experiment: Selectivity interaction (KinomeScan (DiscoverX)) EUB0000655a SRMS; conditions: at 10 µM
[6] = target: Tyrosine-protein kinase BTK (Homo sapiens, UniProt Q06187); conditions: at 10 µM
[7] = target: Cyclin-dependent kinase 13 (Homo sapiens, UniProt Q14004); conditions: at 10 µM
[8] = target: T3, Serine/threonine-protein kinase D1 (Homo sapiens) (UniProt Q15139); experiment: Selectivity interaction (KinomeScan (DiscoverX)) EUB0000618a PRKD1; conditions: at 10 µM
T3 sequence (whole entry): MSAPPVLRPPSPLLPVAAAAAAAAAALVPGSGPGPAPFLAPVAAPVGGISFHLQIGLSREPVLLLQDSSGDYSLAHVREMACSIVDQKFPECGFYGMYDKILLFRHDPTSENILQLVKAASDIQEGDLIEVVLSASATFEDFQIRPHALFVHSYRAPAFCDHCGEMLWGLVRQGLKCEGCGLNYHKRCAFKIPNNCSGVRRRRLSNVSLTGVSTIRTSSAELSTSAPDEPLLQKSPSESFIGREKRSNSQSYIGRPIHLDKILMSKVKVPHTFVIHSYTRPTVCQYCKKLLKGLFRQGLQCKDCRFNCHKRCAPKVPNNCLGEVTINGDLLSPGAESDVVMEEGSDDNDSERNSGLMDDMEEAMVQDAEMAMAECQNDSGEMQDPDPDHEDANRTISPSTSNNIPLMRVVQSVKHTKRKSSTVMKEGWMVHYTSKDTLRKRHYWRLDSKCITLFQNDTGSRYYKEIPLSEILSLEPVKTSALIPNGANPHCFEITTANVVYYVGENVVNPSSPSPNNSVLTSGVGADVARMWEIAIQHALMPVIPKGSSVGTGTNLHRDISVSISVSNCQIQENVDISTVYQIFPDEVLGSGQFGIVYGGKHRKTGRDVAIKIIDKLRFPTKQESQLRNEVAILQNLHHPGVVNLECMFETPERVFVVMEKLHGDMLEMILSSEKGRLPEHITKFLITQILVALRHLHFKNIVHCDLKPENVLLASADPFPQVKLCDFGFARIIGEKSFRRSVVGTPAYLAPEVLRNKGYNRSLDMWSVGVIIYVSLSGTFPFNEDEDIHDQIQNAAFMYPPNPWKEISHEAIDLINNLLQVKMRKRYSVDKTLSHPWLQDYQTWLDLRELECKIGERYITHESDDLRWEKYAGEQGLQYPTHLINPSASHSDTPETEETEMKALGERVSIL

[9] = target: Cyclin-dependent kinase-like 3 (Homo sapiens) (UniProt Q8IVW4); experiment: Selectivity interaction (KinomeScan (DiscoverX)) EUB0001619a CDKL3; conditions: at 1 µM
Cyclin-dependent kinase-like 3 (Homo sapiens), sequence (Q8IVW4 whole entry, looked up): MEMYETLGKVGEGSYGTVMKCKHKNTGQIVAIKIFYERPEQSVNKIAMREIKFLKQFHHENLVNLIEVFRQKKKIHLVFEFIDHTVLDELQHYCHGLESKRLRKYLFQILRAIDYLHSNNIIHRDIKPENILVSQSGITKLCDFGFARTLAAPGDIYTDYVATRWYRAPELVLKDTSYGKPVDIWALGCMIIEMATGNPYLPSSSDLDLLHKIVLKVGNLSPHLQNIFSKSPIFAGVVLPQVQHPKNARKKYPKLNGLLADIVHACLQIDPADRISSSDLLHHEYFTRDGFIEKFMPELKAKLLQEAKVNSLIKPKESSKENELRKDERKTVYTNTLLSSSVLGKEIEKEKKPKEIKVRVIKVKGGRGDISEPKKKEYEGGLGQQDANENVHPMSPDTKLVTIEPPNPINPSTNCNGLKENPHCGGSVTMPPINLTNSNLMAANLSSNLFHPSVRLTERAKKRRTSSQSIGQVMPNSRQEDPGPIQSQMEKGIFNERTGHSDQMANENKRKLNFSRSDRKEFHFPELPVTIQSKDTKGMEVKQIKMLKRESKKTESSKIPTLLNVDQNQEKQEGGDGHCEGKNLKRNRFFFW

Bone morphogenetic protein receptor type-1A, sequence (P36894 whole entry): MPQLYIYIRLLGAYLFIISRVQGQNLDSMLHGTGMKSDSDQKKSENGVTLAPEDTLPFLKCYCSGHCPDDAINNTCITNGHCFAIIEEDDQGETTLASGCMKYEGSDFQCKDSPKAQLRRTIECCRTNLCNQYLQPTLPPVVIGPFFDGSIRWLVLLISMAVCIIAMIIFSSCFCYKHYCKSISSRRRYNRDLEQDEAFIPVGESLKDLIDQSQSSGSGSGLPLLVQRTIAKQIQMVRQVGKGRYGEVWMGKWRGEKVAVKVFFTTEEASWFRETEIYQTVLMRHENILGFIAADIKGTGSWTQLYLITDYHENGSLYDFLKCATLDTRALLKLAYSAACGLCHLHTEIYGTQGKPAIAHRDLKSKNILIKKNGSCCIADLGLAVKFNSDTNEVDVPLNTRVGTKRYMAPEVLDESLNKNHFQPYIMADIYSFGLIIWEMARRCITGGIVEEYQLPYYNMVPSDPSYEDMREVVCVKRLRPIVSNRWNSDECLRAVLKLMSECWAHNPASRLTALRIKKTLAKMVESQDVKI
Tyrosine-protein kinase Srms (Homo sapiens), sequence (Q9H3Y6 whole entry): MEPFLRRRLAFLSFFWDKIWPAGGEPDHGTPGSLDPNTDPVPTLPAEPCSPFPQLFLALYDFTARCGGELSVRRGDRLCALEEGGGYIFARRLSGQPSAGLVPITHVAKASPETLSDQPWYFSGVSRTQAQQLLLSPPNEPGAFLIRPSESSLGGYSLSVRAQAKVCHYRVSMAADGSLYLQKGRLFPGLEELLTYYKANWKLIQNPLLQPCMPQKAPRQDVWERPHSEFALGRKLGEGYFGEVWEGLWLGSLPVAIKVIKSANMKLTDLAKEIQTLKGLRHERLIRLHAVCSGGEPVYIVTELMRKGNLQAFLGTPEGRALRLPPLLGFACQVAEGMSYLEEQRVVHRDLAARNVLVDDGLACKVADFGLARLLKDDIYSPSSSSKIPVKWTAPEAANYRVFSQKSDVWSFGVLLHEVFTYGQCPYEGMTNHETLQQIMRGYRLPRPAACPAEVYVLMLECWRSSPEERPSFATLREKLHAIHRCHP
Cyclin-dependent kinase 13, sequence (Q14004 whole entry, looked up): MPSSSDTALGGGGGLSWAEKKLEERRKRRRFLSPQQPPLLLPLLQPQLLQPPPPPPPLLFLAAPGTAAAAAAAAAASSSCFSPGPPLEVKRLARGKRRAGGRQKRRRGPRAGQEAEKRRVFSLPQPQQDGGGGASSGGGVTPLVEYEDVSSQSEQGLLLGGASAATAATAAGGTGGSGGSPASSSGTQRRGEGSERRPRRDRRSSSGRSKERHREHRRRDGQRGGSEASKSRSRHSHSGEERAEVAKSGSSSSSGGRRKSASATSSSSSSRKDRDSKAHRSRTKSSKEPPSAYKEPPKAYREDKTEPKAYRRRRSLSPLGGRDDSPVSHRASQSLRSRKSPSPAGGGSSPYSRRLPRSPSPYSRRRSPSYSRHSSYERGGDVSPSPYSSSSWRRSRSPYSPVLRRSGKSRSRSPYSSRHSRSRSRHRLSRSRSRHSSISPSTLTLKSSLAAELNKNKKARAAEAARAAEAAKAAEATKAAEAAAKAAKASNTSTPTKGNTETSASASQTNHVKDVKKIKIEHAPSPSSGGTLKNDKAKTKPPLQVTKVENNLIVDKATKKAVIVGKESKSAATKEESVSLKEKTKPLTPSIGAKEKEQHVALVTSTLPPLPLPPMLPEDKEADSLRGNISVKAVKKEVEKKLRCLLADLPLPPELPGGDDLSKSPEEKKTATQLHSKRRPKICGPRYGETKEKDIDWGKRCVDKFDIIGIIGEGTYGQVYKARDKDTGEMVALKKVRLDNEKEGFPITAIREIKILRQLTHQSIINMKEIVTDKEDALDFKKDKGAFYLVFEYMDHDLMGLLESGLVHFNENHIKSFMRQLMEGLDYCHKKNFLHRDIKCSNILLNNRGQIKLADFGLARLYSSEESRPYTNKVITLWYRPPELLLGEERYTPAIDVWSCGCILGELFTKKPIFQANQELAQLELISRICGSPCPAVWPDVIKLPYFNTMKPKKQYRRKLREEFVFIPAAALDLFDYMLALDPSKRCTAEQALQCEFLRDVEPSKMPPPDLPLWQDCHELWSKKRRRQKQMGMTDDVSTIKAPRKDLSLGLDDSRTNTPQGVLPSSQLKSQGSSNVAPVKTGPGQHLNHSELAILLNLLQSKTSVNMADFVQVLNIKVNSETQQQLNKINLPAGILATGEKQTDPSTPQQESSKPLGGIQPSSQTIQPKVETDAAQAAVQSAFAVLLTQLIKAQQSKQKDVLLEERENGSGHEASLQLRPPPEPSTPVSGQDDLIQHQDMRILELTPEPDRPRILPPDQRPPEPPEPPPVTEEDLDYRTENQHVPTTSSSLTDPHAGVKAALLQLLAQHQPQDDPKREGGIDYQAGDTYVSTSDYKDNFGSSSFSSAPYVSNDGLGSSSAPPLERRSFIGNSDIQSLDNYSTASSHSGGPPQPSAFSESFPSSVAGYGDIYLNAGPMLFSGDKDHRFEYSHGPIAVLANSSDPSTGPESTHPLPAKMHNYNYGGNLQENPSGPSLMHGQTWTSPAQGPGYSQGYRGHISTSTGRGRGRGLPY
Calcium/calmodulin-dependent protein kinase type II subunit delta (Homo sapiens), sequence (Q13557 whole entry): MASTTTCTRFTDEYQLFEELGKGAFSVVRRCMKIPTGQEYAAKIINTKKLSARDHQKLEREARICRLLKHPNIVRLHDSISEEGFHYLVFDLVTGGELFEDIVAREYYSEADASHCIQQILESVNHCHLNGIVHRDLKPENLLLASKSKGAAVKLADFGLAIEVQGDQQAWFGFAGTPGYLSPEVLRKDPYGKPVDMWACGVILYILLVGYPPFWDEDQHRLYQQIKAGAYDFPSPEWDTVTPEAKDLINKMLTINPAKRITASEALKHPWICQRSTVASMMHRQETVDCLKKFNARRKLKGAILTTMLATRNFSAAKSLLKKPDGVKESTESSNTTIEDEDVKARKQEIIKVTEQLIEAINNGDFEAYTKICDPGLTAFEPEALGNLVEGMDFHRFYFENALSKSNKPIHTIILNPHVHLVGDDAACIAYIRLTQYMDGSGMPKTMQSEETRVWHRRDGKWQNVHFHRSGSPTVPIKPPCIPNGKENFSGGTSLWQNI
Tyrosine-protein kinase BTK, sequence (Q06187 whole entry): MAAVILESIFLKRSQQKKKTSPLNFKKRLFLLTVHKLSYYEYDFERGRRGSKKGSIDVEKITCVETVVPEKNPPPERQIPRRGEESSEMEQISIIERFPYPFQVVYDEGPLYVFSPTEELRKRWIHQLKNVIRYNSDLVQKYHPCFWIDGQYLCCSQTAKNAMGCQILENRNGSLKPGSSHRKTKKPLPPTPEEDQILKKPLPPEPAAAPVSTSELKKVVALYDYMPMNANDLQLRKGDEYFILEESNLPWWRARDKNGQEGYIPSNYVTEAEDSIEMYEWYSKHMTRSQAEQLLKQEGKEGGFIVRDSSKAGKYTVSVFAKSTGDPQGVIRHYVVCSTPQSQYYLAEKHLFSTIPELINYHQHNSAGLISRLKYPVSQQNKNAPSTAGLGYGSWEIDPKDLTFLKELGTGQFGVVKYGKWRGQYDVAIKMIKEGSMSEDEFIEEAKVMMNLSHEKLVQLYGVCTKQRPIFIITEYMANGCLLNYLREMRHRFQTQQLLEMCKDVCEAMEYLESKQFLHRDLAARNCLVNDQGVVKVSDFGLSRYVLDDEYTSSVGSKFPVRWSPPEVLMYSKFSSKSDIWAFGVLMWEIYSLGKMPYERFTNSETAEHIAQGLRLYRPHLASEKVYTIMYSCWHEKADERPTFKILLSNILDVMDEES

% of control [1]: 28%
SMILES: Cn1cc(-n2cnc3c(NCc4nc5cc(Cl)c(Cl)cc5[nH]4)nc(N4CCOCC4)nc32)cn1

% of control [2]: 100% | % of control [3]: 100%
SMILES: CCN(CC)CCCCNc1ncc2cc(-c3cc(OC)cc(OC)c3)c(NC(=O)NC(C)(C)C)nc2n1

% of control ([4]; at 1 µM): 92% | % of control ([4]; at 5 µM): 99%
SMILES: C=CC(=O)Nc1cccc(C(=O)Nc2ccc(Nc3cc(-c4[nH]c(SC)nc4C)ccn3)cc2)c1

SMILES: CN(C)CCOc1ccc(-c2nc(-c3ccncc3)c(-c3ccc4c(c3)CC/C4=N\O)[nH]2)cc1
% of control [5]: 74%

SMILES: C=CC(=O)Nc1cc(-n2c(=O)ccc3cnc4ccc(-c5ccc(NS(C)(=O)=O)cc5)cc4c32)ccc1C
% of control [6]: 0.7%

SMILES: Cc1cc([C@@H](C)Nc2ccccc2C(=O)O)c2nc(N3CCOCC3)cc(=O)n2c1 [AZD-6482]
% of control [7]: 88%

SMILES: O[C@H]1CC[C@H](Nc2ncc3nc(Nc4c(F)cc(F)cc4F)n([C@H]4CCOC4)c3n2)CC1
% of control [8]: 46%

SMILES: N#Cc1cccc(-c2c[nH]c3ncnc(N4CCOCC4)c23)c1
% of control [9]: 100%
